Experimental data taken from ChEMBL document CHEMBL1201862, “PubChem BioAssay data set” (2004).
Activity calls are given as the source filed them.

Columns and labels:
[1] = target: T1, Carboxy-terminal domain RNA polymerase II polypeptide A small phosphatase 1 (Homo sapiens, UniProt Q9GZU7); assay: CTDSP1 inhibitors, concentration-response, biochemical, absorbance readout, ultra-high-throughput screen actives (AID 540297); type: functional
T1 sequence (Q9GZU7 whole entry): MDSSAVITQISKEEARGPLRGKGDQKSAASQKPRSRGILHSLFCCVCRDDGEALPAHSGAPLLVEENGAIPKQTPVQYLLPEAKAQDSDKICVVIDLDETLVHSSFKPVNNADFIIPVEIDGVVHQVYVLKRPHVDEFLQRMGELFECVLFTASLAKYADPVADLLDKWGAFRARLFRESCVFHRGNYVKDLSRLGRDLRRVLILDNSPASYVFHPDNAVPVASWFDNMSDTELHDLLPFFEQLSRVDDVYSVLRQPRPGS

[2] = target: Delta-type opioid receptor (Homo sapiens, UniProt P41143); assay: Counterscreen for agonists of heterodimerization of the mu 1 (OPRM1) and delta 1 (OPRD1) opioid receptors: Luminescence-based cell-based high throughput dose response assay to identify agonists of OPRD1 homodimerization. [Related pubchem assays (depositor defined):AID504326, AID504355, AID504692, AID504904, AID504905]; type: functional
Delta-type opioid receptor, sequence (P41143 whole entry): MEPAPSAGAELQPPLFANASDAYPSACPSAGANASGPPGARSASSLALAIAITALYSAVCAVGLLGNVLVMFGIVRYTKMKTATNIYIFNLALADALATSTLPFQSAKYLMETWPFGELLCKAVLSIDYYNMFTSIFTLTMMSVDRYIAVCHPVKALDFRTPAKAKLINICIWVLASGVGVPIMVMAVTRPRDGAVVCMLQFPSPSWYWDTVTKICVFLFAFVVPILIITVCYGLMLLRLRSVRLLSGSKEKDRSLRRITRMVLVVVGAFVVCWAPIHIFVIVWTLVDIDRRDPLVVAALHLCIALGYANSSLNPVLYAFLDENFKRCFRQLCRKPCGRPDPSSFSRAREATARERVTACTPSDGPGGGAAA

[3] = target: 5-hydroxytryptamine receptor 5A (Homo sapiens, UniProt P47898); assay: Counterscreen for agonists of OPRM1-OPRD1 heterodimerization: luminescence-based cell-based high throughput dose response assay to identify agonists of 5-hydroxytryptamine (serotonin) 5A receptor (HTR5A). [Related pubchem assays (depositor defined):AID504326, AID504355, AID504692, AID504904, AID504905]; type: functional
5-hydroxytryptamine receptor 5A, sequence (P47898 whole entry): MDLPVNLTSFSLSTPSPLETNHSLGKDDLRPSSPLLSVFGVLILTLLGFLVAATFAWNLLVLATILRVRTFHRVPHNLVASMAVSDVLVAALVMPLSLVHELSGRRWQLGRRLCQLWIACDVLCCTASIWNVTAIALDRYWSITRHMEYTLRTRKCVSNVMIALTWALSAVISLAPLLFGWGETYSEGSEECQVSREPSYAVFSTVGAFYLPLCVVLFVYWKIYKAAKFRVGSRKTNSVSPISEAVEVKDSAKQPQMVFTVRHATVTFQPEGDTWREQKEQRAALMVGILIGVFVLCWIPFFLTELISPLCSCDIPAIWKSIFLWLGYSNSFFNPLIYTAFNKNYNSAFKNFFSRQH

Mu-type opioid receptor = Mu-type opioid receptor (Homo sapiens, UniProt P35372); assay: Counterscreen for agonists of heterodimerization of the mu 1 (OPRM1) and delta 1 (OPRD1) opioid receptors: Luminescence-based cell-based high throughput dose response assay to identify agonists of OPRM1 homodimerization.; type: functional;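 further: U2OS cells expressing OPRM1 and beta-arrestin as split beta-galactosidase partners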
Mu-type opioid receptor, sequence (P35372 whole entry): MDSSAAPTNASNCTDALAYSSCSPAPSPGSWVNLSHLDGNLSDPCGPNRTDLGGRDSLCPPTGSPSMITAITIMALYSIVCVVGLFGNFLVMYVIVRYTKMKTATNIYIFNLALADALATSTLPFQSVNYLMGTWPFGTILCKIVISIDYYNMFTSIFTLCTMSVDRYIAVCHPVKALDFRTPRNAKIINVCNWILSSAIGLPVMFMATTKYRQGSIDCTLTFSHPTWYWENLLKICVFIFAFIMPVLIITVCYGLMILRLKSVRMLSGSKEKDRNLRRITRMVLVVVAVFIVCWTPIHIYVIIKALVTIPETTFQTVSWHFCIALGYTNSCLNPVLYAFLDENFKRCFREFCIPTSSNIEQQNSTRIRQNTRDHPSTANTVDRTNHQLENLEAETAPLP

[4] = target: T2, Short transient receptor potential channel 4 (Mus musculus, UniProt Q9QUQ5); assay: block of DAMGO-driven TRPC4 calcium entry – cell-based, HEK293 TRPC4/mu-opioid, Fluo-4 calcium, dose response (AID 434942); type: functional;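 further: potency of inhibitors blocking the TRPC4 calcium response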
T2 sequence (Q9QUQ5 whole entry): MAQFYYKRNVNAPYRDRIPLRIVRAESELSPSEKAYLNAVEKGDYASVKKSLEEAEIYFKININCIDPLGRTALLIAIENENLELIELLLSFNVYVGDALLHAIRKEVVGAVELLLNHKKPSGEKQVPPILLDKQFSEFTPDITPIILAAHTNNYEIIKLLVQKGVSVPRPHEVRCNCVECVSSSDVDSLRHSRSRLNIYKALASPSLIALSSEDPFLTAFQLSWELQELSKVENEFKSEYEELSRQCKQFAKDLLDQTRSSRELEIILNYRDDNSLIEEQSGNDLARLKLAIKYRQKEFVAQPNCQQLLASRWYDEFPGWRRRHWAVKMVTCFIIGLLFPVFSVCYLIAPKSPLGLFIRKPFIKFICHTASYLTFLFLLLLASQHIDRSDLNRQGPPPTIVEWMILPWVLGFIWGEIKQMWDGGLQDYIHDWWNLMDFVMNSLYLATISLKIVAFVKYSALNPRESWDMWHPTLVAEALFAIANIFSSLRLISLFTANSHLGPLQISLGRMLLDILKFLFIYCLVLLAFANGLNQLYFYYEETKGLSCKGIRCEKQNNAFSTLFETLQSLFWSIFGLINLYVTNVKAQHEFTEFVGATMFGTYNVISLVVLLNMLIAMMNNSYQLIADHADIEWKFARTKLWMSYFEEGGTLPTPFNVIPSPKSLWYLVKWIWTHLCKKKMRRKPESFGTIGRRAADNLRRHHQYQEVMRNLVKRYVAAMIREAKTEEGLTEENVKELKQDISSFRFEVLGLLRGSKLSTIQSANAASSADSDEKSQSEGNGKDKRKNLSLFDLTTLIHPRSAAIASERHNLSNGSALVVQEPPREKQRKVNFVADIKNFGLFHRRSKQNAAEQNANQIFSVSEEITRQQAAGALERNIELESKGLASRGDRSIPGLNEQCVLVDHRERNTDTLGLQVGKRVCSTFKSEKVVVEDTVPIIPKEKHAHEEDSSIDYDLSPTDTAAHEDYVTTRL

[5] = target: T2, Short transient receptor potential channel 4; assay: calcium entry via TRPC4 opening agents – cell-based, HEK293 TRPC4/mu-opioid, Fluo-4 calcium, dose response (AID 434937); type: functional
[6] = Luminescence Cell-Based Dose Response HTS to Identify Activators of Luciferase Translation or Activity in H4 […] Cells. [Related pubchem assays: 1829 (Project Summary), 1814 (Primary HTS)]; type: functional
[7] = Luminescence Cell-Based Dose Confirmation HTS to Identify Activators of 5'UTR Stem-Loop Driven Alpha-Synuclein mRNA Translation in H4 Neuroglioblastoma Cells. [Related pubchem assays: 1829 (Project Summary), 1814 (Primary HTS)]; type: functional
[8] = Luminescence Cell-Based Dose Confirmation HTS to Identify Inhibitors of Platelet Dense Granule Release. [Related pubchem assays: 1663 (Primary HTS), 1678 (Summary of Project)]; type: functional
HeLa = assay: ATP-based viability loss in HeLa cells – cell-based, CellTiter-Glo luminescence, cherry-pick samples, cytotoxicity control for MITF activator project, dose response (AID 540259); type: functional; conditions: Homo sapiens
[9] = target: Luciferin 4-monooxygenase (Photinus pyralis, UniProt P08659); assay: inhibition of purified Photinus pyralis luciferase – biochemical, luminescence, dose response (AID 1891)
H4 = assay: Luminescence Cell-Based Dose Response HTS to Identify Activators of 5'UTR Stem-Loop Driven Prion Protein mRNA Translation in H4 Neuroglioblastoma Cells. [Related pubchem assays: 1829 (Project Summary), 1814 (Primary HTS)]; type: functional; conditions: Homo sapiens
[10] = target: T3, Apoptotic protease-activating factor 1 (Homo sapiens, UniProt O14727); type: functional
T3 sequence (O14727 whole entry): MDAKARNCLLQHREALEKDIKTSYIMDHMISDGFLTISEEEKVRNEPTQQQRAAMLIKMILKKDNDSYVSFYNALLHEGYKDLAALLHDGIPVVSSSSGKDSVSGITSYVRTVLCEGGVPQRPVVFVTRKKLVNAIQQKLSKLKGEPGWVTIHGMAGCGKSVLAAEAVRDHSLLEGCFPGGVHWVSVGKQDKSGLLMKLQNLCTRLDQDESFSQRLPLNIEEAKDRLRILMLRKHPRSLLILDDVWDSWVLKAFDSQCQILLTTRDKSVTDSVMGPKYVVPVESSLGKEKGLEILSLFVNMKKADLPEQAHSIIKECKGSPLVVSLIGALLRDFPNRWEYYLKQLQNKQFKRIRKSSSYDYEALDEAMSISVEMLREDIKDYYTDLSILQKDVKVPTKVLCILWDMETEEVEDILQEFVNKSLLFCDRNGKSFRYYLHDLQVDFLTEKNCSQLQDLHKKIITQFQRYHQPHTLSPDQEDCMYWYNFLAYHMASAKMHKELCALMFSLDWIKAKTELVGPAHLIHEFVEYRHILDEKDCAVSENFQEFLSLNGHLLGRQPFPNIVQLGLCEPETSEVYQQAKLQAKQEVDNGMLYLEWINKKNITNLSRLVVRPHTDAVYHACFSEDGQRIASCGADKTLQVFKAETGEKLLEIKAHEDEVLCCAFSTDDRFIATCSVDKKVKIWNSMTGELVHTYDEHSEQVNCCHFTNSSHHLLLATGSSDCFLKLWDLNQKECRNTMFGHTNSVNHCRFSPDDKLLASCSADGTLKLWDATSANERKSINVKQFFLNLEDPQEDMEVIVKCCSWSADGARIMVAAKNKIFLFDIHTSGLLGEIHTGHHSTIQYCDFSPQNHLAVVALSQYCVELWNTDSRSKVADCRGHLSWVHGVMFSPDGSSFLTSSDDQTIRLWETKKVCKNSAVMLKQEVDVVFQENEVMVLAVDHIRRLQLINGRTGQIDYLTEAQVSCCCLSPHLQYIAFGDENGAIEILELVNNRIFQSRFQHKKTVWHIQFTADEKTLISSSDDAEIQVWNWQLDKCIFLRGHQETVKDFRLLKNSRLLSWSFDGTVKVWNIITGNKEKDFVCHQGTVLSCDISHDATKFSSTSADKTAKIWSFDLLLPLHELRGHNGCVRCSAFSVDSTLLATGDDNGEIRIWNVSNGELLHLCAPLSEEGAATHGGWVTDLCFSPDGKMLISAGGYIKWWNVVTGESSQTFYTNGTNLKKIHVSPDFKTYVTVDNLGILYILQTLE

[11] = target: T4, Type-1 angiotensin II receptor (Homo sapiens, UniProt P30556); assay: antagonism of angiotensin II type 1 receptor – cell-based, uHTS hits, selectivity assay for APJ receptor antagonist project, dose response (AID 463214); type: functional;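 further: antagonist potency against angiotensin II stimulated AT1 response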
T4 sequence (P30556 whole entry): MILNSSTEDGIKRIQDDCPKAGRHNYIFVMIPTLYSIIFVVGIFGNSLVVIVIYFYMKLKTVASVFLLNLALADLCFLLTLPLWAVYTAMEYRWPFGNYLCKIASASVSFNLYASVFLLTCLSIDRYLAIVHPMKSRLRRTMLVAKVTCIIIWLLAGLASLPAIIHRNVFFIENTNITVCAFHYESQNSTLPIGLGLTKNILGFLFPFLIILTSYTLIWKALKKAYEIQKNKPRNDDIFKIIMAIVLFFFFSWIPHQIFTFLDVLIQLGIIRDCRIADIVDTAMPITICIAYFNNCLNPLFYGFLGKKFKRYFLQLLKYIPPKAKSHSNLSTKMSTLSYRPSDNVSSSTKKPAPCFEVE

Beta-galactosidase = Beta-galactosidase (Escherichia coli, UniProt Q8VNN2); assay: PubChem AID 485352; type: functional
Beta-galactosidase, sequence (Q8VNN2 whole entry): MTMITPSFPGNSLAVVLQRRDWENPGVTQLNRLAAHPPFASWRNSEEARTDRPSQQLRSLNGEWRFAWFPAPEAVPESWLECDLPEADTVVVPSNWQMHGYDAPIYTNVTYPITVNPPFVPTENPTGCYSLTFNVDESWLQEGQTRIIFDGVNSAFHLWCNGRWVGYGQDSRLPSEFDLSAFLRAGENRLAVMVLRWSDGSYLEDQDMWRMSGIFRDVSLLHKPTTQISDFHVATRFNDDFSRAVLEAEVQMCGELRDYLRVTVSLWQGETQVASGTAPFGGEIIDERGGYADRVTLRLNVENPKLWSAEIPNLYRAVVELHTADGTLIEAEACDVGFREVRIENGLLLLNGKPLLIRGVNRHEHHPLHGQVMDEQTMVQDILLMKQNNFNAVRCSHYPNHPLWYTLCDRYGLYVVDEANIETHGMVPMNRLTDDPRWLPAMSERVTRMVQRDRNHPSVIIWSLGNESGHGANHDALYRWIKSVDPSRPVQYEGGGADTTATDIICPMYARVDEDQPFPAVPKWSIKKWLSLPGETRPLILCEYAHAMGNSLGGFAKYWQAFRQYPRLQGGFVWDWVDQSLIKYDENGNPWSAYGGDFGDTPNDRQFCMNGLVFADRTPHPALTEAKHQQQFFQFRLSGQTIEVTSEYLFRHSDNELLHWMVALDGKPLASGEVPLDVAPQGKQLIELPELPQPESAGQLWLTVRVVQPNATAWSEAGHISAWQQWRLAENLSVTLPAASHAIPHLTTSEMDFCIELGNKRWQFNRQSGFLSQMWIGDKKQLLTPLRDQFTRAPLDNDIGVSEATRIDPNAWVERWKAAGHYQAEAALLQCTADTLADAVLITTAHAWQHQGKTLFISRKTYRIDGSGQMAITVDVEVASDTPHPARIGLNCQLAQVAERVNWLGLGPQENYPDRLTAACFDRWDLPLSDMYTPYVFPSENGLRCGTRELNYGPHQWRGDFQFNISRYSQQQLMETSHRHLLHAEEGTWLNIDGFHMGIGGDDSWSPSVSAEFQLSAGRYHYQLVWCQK

INS1 = assay: INS-1E survival protection against cytokine death – cell-based, luminescence, retest, dose response (AID 449756); type: functional; conditions: Rattus norvegicus;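 further: cell death triggered by IL-1 beta plus TNF-alpha plus IFN-gamma mixture; protective hits raise ATP signal compared with cytokine alone wells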
[12] = reduction of Shn3 3'UTR-driven luciferase in osteoblasts – cell-based, Clone20 osteoblasts, firefly luciferase, cherry-picked, dose response (AID 624132); type: functional;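 further: firefly luciferase luminescence from reporter carrying the Shn3 3'UTR in osteoblasts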
Fatty acid synthase [13] = target: T5, Fatty acid synthase (Homo sapiens, UniProt P49327); assay: inhibition of human FAS-TE enzyme activity – biochemical, endpoint fluorescence intensity, uHTS hits, dose response (AID 624327); type: functional;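 further: fluorescence from hydrolysis of an O-methyl fluorescein acyl ester substrate by the enzyme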
T5 sequence (P49327 whole entry): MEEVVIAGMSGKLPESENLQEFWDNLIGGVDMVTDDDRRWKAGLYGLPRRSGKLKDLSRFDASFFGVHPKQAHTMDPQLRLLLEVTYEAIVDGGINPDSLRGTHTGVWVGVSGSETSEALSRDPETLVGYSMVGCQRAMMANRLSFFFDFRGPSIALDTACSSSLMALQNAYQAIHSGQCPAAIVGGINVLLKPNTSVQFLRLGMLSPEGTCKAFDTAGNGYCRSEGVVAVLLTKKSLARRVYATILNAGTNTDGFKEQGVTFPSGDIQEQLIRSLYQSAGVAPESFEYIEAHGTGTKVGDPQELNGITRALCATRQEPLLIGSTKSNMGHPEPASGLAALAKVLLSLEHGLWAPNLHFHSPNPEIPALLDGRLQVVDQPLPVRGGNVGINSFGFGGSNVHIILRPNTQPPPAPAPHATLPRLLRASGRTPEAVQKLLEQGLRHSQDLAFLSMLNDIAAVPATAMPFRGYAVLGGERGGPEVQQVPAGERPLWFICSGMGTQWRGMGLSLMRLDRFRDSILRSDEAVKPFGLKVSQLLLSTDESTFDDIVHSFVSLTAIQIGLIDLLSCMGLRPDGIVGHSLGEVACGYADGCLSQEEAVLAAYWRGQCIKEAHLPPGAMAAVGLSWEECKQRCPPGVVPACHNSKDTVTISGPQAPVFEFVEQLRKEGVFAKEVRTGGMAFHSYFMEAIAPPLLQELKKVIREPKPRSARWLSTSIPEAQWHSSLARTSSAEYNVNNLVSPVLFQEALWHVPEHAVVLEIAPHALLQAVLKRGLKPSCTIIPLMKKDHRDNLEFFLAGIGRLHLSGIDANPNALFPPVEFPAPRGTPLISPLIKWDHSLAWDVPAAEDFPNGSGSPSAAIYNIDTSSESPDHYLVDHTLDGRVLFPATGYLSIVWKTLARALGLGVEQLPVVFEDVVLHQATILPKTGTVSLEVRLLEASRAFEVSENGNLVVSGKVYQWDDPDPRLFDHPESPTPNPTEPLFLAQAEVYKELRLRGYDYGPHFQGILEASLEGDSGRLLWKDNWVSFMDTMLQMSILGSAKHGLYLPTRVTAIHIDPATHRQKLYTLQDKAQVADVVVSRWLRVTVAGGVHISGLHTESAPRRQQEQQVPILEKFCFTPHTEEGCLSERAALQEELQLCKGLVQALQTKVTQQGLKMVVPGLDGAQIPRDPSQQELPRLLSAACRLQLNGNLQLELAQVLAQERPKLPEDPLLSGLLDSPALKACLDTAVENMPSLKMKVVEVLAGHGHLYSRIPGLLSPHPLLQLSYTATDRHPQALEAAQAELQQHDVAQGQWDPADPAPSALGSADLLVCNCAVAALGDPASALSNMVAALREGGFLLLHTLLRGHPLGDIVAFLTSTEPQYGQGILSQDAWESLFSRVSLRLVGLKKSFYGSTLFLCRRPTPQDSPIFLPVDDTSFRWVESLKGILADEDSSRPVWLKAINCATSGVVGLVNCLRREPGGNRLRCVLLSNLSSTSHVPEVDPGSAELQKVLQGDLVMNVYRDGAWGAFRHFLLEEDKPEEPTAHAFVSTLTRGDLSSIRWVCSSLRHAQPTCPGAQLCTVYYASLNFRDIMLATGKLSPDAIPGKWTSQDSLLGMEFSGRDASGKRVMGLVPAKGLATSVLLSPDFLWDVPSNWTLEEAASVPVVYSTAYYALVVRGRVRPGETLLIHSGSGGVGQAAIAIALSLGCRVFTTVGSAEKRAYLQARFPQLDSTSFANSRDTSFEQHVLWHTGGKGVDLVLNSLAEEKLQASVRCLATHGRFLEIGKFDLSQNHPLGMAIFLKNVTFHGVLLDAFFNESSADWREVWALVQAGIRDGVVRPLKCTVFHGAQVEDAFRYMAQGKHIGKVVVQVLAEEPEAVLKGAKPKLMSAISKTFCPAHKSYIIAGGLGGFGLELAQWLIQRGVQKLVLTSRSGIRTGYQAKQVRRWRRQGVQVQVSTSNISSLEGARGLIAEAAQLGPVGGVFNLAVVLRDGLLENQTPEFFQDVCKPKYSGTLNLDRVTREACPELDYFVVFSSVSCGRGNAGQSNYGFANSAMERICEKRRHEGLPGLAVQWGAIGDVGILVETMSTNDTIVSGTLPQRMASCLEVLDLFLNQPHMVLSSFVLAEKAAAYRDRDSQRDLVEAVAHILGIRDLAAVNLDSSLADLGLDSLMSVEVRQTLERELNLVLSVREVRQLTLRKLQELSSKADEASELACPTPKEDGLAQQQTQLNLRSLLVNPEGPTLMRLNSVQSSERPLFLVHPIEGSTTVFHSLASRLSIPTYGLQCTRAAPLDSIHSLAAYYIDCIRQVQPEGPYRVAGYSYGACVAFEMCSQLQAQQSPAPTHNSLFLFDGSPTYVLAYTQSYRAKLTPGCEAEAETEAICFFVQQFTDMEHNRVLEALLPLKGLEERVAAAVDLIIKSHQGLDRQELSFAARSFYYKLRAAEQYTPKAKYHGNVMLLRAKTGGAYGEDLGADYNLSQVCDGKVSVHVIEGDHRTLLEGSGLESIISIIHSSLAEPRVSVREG

Fatty acid synthase [14] = target: T5, Fatty acid synthase; assay: inhibition of human FAS-TE enzyme activity – biochemical, kinetic fluorescence intensity, dose response (AID 624326); type: functional;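 further: rate of fluorescence rise from hydrolysis of a fluorogenic O-methyl fluorescein ester substrate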
CHO = CHO cell viability loss, potency – luminescence, cytotoxicity control for TLR9-MyD88 binding inhibitor project, dose response (AID 588339); type: functional, cell-based, hamster; conditions: Cricetulus griseus;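 further: CHO cells stably coexpressing TLR9 and MyD88 fusions from primary screen; compound exposure lasted 48 hours before viability readout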
[15] = non-specific 3'UTR reporter inhibition in Clone20-Shn3RL – cell-based, Renilla luciferase, cherry-picked, counter-screen for Shn3 inhibitor project, dose response (AID 624133); type: functional
[16] = loss of viability in HepG2 cells – cell-based, CellTiter-Glo, cherry-picked, cytotoxicity control for Shn3 inhibitor project, dose response (AID 624134); type: functional

## Cc1ccc(Cl)cc1N1CCN(C(=O)CN(c2ccccc2)S(=O)(=O)N(C)C)CC1
[1]
  IC50: 5.49 µM (active)

## Cc1ccc(C2(O)C[N+](c3ccccc3)=C3SCCN32)cc1 (stereo not drawn)
[2]
  EC50: > 92.5 µM (inactive)
[3]
  EC50: > 92.5 µM (inactive)
Mu-type opioid receptor
  EC50: 48.2 µM (inactive)
[4]
  EC50: 0.237 µM (active)
[5]
  EC50: 0.596 µM (active)

## Cc1ccc(OCC(=O)Nc2ccc(NC(=O)c3cccs3)cc2)c(C)c1
[2]
  EC50: > 92.5 µM (inactive)
[3]
  EC50: > 92.5 µM (inactive)
Mu-type opioid receptor
  EC50: > 92.5 µM (inactive)

## c1ccc(C2=NN(c3ccccc3)CC2)cc1
[6]
  EC50: 0.187 µM (active)
[7]
  EC50: 0.11 µM (active)
[8]
  EC50: > 112 µM (not active)
HeLa
  AC50: 85.4 µM (active)
[9]
  EC50: > 112 µM (not active)
H4
  EC50: > 120 µM (not active)

## Cc1cc(=O)oc2cc(NC(=O)C3COc4ccccc4O3)ccc12 (stereo not drawn)
[2]
  EC50: > 92.5 µM (inactive)
[3]
  EC50: > 92.5 µM (inactive)
Mu-type opioid receptor
  EC50: > 92.5 µM (inactive)

## Oc1ccc(Br)cc1/C=N/N1CCCCC1
[6]
  EC50: > 120 µM (not active)
[7]
  EC50: 4.76 µM (active)
HeLa
  AC50: 41.4 µM (active)
H4
  EC50: > 120 µM (not active)

## COc1ccc(C(CNC(=O)c2cncc(Br)c2)N(C)C)cc1 (stereo not drawn)
[2]
  EC50: 26.9 µM (inactive)
[3]
  EC50: > 92.5 µM (inactive)
Mu-type opioid receptor
  EC50: 18.5 µM (inactive)

## Nn1c(SCC(=O)NC(=O)NCc2ccco2)nnc1-c1ccc(OC(F)F)cc1
[1]
  IC50: 3.75 µM (active)

## CCCn1ncc2c(Nc3ccc(C)c(C)c3)ncnc21
HeLa
  AC50: 39.8 µM (active)

## CCc1ccc(NC(=O)c2cc(-c3cccs3)on2)cc1
HeLa
  AC50: 160 µM (active)

## CC(C)CC[n+]1ccn(C2=C([N-]S(=O)(=O)c3ccccc3)C(=O)c3ccccc3C2=O)c1
[10]
  IC50: 12.9 µM (active)

## CN(c1ccccc1)S(=O)(=O)c1ccc(NC(=O)c2nc(S(C)(=O)=O)ncc2Cl)cc1
[11]
  IC50: 3.14 µM (active)
Beta-galactosidase
  EC50: > 40 µM (inactive)
INS1
  AC50: 5.65 µM (active)
[12]
  AC50: 0.502 µM (active)
Fatty acid synthase [13]
  IC50: 5.88 µM (active)
Fatty acid synthase [14]
  IC50: 5.01 µM (active)
CHO
  IC50: 2.03 µM (active)
[15]
  AC50: 2.77 µM (active)
[16]
  AC50: 10.5 µM (active)
